Data taken from ChEMBL document CHEMBL1201862, “PubChem BioAssay data set” (2004).
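Five concentrations, 48 hours, 96-well plates. GI50 marks 50% less growth.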 Activity calls are given as the source filed them. Cut-off read from the data, not from the text of the source: active = GI50 up to about 1.1 µM and inactive = higher.

Columns and labels:
Assay in all cases: NCI-60 cell line screen, 48 h
DU-145 = test system: DU-145
HCC 2998 = test system: HCC 2998
HOP-92 = test system: HOP-92
MCF7 = test system: MCF7
MDA-MB-231 = test system: MDA-MB-231
MDA-N = test system: MDA-N
NCI-H226 = test system: NCI-H226
OVCAR-5 = test system: OVCAR-5
OVCAR-8 = test system: OVCAR-8
PC-3 = test system: PC-3
SF-268 = test system: SF-268
SF-539 = test system: SF-539
SK-MEL-28 = test system: SK-MEL-28
SK-MEL-2 = test system: SK-MEL-2
SN12C = test system: SN12C
SR = test system: SR
SW-620 = test system: SW-620
TK-10 = test system: TK-10
U-251 = test system: U-251
M19-MEL = test system: M19-MEL

Structure (SMILES) | GI50 (DU-145) | GI50 (HCC 2998) | GI50 (HOP-92) | GI50 (MCF7) | GI50 (MDA-MB-231) | GI50 (MDA-N) | GI50 (NCI-H226) | GI50 (OVCAR-5) | GI50 (OVCAR-8) | GI50 (PC-3) | GI50 (SF-268) | GI50 (SF-539) | GI50 (SK-MEL-28) | GI50 (SK-MEL-2) | GI50 (SN12C) | GI50 (SR) | GI50 (SW-620) | GI50 (TK-10) | GI50 (U-251) | GI50 (M19-MEL)
O=C(O)CC1(CC(=O)O)Nc2ccccc2SC1=O | > 100 µM (inactive) | > 100 µM (inactive) | > 100 µM (inactive) | > 100 µM (inactive) | > 100 µM (inactive) | > 100 µM (inactive) | > 100 µM (inactive) | > 100 µM (inactive) | > 100 µM (inactive) | > 100 µM (inactive) | > 100 µM (inactive) | 0.0904 µM (active) | > 100 µM (inactive) | > 100 µM (inactive) | > 100 µM (inactive) | > 100 µM (inactive) | > 100 µM (inactive) | > 100 µM (inactive) | > 100 µM (inactive) | 
COC(=O)C1=NN2c3ccccc3C(=O)OCCC2C1 (configuration not stated) | > 100 µM (inactive) | > 100 µM (inactive) | 46.5 µM (inactive) | > 100 µM (inactive) | > 100 µM (inactive) | > 100 µM (inactive) | > 100 µM (inactive) | > 100 µM (inactive) | > 100 µM (inactive) | > 100 µM (inactive) | > 100 µM (inactive) | > 100 µM (inactive) | > 100 µM (inactive) | > 100 µM (inactive) | > 100 µM (inactive) | > 100 µM (inactive) | > 100 µM (inactive) | > 100 µM (inactive) | > 100 µM (inactive) | 
CC(C)NC(=O)CN1CCN(C2=CC(=O)c3c(O)ccc(O)c3C2=O)CC1 | 16.1 µM (inactive) | 16.7 µM (inactive) | 21.9 µM (inactive) | 2.71 µM (inactive) | 26.3 µM (inactive) | 2.79 µM (inactive) | 31.4 µM (inactive) | 18.7 µM (inactive) | 9.04 µM (inactive) | 17.5 µM (inactive) | 24.3 µM (inactive) | 16.7 µM (inactive) | 17.1 µM (inactive) | 16.6 µM (inactive) | 14.5 µM (inactive) | 1.57 µM (inactive) | 4.25 µM (inactive) | 17.1 µM (inactive) | 19.9 µM (inactive) | 
Cc1ccc(C)c(/C(=N\N=C(N)N)C2CC2)c1 | 58.9 µM (inactive) | 20.4 µM (inactive) | 47.2 µM (inactive) | 47.8 µM (inactive) | 63.4 µM (inactive) | 23.4 µM (inactive) | 31.7 µM (inactive) | 29.9 µM (inactive) | 46.6 µM (inactive) | 48.5 µM (inactive) | 39.5 µM (inactive) | 32.3 µM (inactive) | 35 µM (inactive) | 50.8 µM (inactive) | 56 µM (inactive) | 37.6 µM (inactive) | 33.1 µM (inactive) | 34 µM (inactive) | 17.4 µM (inactive) | 
COc1ccc2nc3cc(Cl)ccc3c(Nc3ccc(O)c(CN4CCN(C)CC4)c3)c2c1 | 1.9 µM (inactive) | 1.19 µM (inactive) | 1.72 µM (inactive) | 1.64 µM (inactive) | 1.52 µM (inactive) | 1.67 µM (inactive) | 20.5 µM (inactive) | 2.41 µM (inactive) | 1.79 µM (inactive) | 1.67 µM (inactive) | 2.28 µM (inactive) | 1.79 µM (inactive) | 1.92 µM (inactive) | 1.81 µM (inactive) | 1.85 µM (inactive) | 0.676 µM (active) | 1.99 µM (inactive) | 1.97 µM (inactive) | 1.67 µM (inactive) | 
O=C(O)c1nc2ccc(Cl)cc2[nH]c1=O | > 100 µM (inactive) | > 100 µM (inactive) | > 100 µM (inactive) | > 100 µM (inactive) | > 100 µM (inactive) | > 100 µM (inactive) | > 100 µM (inactive) | > 100 µM (inactive) | > 100 µM (inactive) | > 100 µM (inactive) | > 100 µM (inactive) | > 100 µM (inactive) | > 100 µM (inactive) | > 100 µM (inactive) | > 100 µM (inactive) | > 100 µM (inactive) | > 100 µM (inactive) | > 100 µM (inactive) | > 100 µM (inactive) | 
CCN(CC)CCN(C)CCc1ccc(Br)cc1 | > 100 µM (inactive) | > 100 µM (inactive) | 27.4 µM (inactive) | 48.8 µM (inactive) | 54.3 µM (inactive) | 29.7 µM (inactive) | 24.7 µM (inactive) | 48 µM (inactive) | > 100 µM (inactive) | 54 µM (inactive) | > 100 µM (inactive) | 30.8 µM (inactive) | 41.7 µM (inactive) | > 100 µM (inactive) | > 100 µM (inactive) | > 100 µM (inactive) | 54.8 µM (inactive) | > 100 µM (inactive) | 41.4 µM (inactive) | 
CC(=O)Nc1cc(Cl)cc(Cl)c1O | > 100 µM (inactive) | > 100 µM (inactive) | > 100 µM (inactive) | > 100 µM (inactive) | > 100 µM (inactive) | > 100 µM (inactive) | > 100 µM (inactive) | > 100 µM (inactive) | > 100 µM (inactive) | > 100 µM (inactive) | > 100 µM (inactive) | > 100 µM (inactive) | > 100 µM (inactive) | > 100 µM (inactive) | > 100 µM (inactive) | > 100 µM (inactive) | > 100 µM (inactive) | > 100 µM (inactive) | > 100 µM (inactive) | 
C[N+]12CCCCC1C(CN1C(=O)c3ccccc3C1=O)CCC2 (configuration not stated) | > 100 µM (inactive) | > 100 µM (inactive) | > 100 µM (inactive) | > 100 µM (inactive) | > 100 µM (inactive) | > 100 µM (inactive) | > 100 µM (inactive) | > 100 µM (inactive) | > 100 µM (inactive) | > 100 µM (inactive) | > 100 µM (inactive) | > 100 µM (inactive) | > 100 µM (inactive) | > 100 µM (inactive) | > 100 µM (inactive) | 56 µM (inactive) | > 100 µM (inactive) | > 100 µM (inactive) | > 100 µM (inactive) | 
COC(=O)c1ccccc1CC1Cc2cc3c(cc2C1)CCC3 | 40.5 µM (inactive) | 42.5 µM (inactive) | 26.9 µM (inactive) | 45.9 µM (inactive) | 55.1 µM (inactive) | 47.8 µM (inactive) | 35.2 µM (inactive) | 50.4 µM (inactive) | 56.8 µM (inactive) | 39.3 µM (inactive) | 40.8 µM (inactive) | 54.2 µM (inactive) | 29.3 µM (inactive) | 19.4 µM (inactive) | 40.2 µM (inactive) | 5.58 µM (inactive) | 53.5 µM (inactive) | > 100 µM (inactive) | 36.5 µM (inactive) | 
CC(C)CCC[C@@H](C)C1CCC2[C@@H]3CC=C4C[C@@H](C(=O)NCC[N+](C)(C)CCCS(=O)(=O)[O-])CC[C@]4(C)C3CC[C@@]21C (some centres not stated) |  | 19.8 µM (inactive) |  |  |  |  | 21.2 µM (inactive) |  | 18.8 µM (inactive) |  | 21.1 µM (inactive) | 21.3 µM (inactive) | 19.8 µM (inactive) | 18.2 µM (inactive) | 17.9 µM (inactive) |  | 16.6 µM (inactive) |  | 17.3 µM (inactive) | 17.1 µM (inactive)
CCOC(=O)c1c2ccccc2n2c(=O)n(-c3ccc(OC)cc3)nnc12 | 75.2 µM (inactive) | > 100 µM (inactive) | 21.7 µM (inactive) | 0.555 µM (active) | > 45.5 µM (inactive) | > 100 µM (inactive) | 23.3 µM (inactive) | 46.1 µM (inactive) | 20.6 µM (inactive) | 18.2 µM (inactive) | 16.2 µM (inactive) | 19.5 µM (inactive) | 65.6 µM (inactive) | 22.8 µM (inactive) | > 83.8 µM (inactive) | 38.7 µM (inactive) | > 42.4 µM (inactive) | 46.6 µM (inactive) | 16.9 µM (inactive) | 
COC(=O)C1=C(C)N2[C@H](C(=O)O)CS[C@@]2(C)[C@H](C(=O)OC)[C@H]1c1cccc([N+](=O)[O-])c1 | > 100 µM (inactive) | > 100 µM (inactive) | 54.5 µM (inactive) | > 100 µM (inactive) | > 100 µM (inactive) | > 100 µM (inactive) | > 100 µM (inactive) | > 100 µM (inactive) | > 100 µM (inactive) | > 100 µM (inactive) | > 100 µM (inactive) | > 100 µM (inactive) | > 100 µM (inactive) | > 100 µM (inactive) | > 100 µM (inactive) | > 100 µM (inactive) | > 100 µM (inactive) | > 100 µM (inactive) | > 100 µM (inactive) | 
NC(C(=O)O)c1cc(O)no1 (configuration not stated) | > 100 µM (inactive) | > 100 µM (inactive) | > 100 µM (inactive) | > 100 µM (inactive) | > 100 µM (inactive) | > 100 µM (inactive) | > 100 µM (inactive) | > 100 µM (inactive) | > 100 µM (inactive) | > 100 µM (inactive) | > 100 µM (inactive) | > 100 µM (inactive) | > 100 µM (inactive) | > 100 µM (inactive) | > 100 µM (inactive) | > 100 µM (inactive) | > 100 µM (inactive) | > 100 µM (inactive) | > 100 µM (inactive) | 
CN(C)CCNc1ccc([N+](=O)[O-])c2sc3ccccc3c(=O)c12 | 5.07 µM (inactive) | 2.92 µM (inactive) | 3.84 µM (inactive) | 3.41 µM (inactive) | 1.99 µM (inactive) | 4.92 µM (inactive) | 6.11 µM (inactive) | 3.03 µM (inactive) | 3.63 µM (inactive) | 4.11 µM (inactive) | 4.21 µM (inactive) | 3.65 µM (inactive) | 7.08 µM (inactive) | 14.1 µM (inactive) | 4.46 µM (inactive) | 1.56 µM (inactive) | 2.43 µM (inactive) | 12.3 µM (inactive) | 3.48 µM (inactive) | 
